# Laboratory results as given in patent US20080227752A1, “Methods to Inhibit Histone Acetyltransferase Using Glycosaminoglycans” (Trustees of Boston University, priority 2004, published 2008).
# Experiments:
# pCAF = biological target: T1, pCAF (Homo sapiens, UniProt Q92831); test: Core histone acetylation filter binding HAT assay, pCAF; assay type: biochemical; settings: core histones, 30 minutes 30° C
# T1 construct: purchased BIOMOL International (Plymouth Meeting, Pa.)
# Method: In the presence of 0.5 μCi [^3H]acetyl Co A, 10 μg core histones was incubated with either 0.5 μg pCAF (filled circles, […]) or 0.83 μg p300 HAT domain (open circles, ∘) and the indicated heparin concentrations for 30 minutes at 30° C. Formation of [^3H]acetylated core histones was determined by vacuum filtration of the samples across a nitrocellulose membrane and quantitated by liquid scintillation counting. The data is expressed as the mean % Control ±SD. Background CPM in samples without added enzyme was 5781.25 while [^3H]acetylated histone CPM in samples without heparin were 16484.5 for the pCAF containing samples and 9960.5 for the p300 HAT domain samples.
# 10 μg core histones were incubated with 0.5 μg pCAF, 0.5 μCi [^3H]acetyl Co A and the indicated concentrations of chondroitin sulfate (filled circles, […]), dextran (open circles, ∘), D-glucosamine (filled squares, ▪), hyaluronic acid (open squares, □) or keratan sulfate (filled triangles, ▴) for 30 minutes at 30° C. 35 μl aliquots of the reaction mixtures were spotted onto nitrocellulose filter in a dot blot apparatus under vacuum to remove unincorporated [^3H]acetyl Co A. The sample wells and filters were washed with 50 mM tris pH 7.6 and the samples were processed for liquid scintillation counting. The data is expressed as the mean % Control ±SD. 100% is equal to the activity in the absence of any additives.
# 10 μg core histones was incubated with 0.5 μg pCAF, 0.5 μCi [^3H]acetyl Co A and the indicated concentrations of N-Desulfated Heparin (filled circles, […]) or Fully O-Desulfated Heparin (open circles, ∘) for 30 minutes at 30° C. 35 μl aliquots of the reaction mixtures were filtered through a nitrocellulose filter in a Bio Dot Apparatus under vacuum. The wells and filter were washed with 50 mM tris pH 7.6 and the membrane was processed for liquid scintillation counting. The data is expressed as the mean % Control ±SD.
# FIGS. 15A and 15B show inhibition of pCAF HAT Activity by elastase generated proteoglycans. FIG. 15A, Proteoglycans (PG) were purified from pulmonary fibroblast elastase supernatants using anion exchange chromatographic methods. Heparan sulfate proteoglycan fragments (HSPGf) were generated by treating the PG fraction with 10 mU/ml chondroitinase ABC and repurifying the fragments by anion exchange chromatography. Core histones (10 μg) were incubated with 0.5 μg pCAF, 0.5 μCi [^3H]acetyl Co A and the indicated concentrations of PG (filled squares, ▪) or HSPGf (open squares, □) for 30 minutes at 30° C. 35 μl aliquots of the reaction mixtures were filtered through a nitrocellulose filter and the membrane was processed for liquid scintillation counting. The data is expressed as the mean % Control ±SD. FIG. 15B, Proteoglycans (PG) were purified from another preparation of pulmonary fibroblast elastase supernatants. Free GAG chains (B-PG) were generated by treating the PG fraction with alkaline borohydride and were recovered by anion exchange methods. Core histones (Core histones (10 μg) were incubated with 0.5 μg pCAF, 0.5 μCi [^3H]acetyl Co A and the indicated concentrations of PG (filled squares, ▪) or B-PG (open squares, □) for 30 minutes at 30° C. 35 μl aliquots of the reaction mixtures were filtered through a nitrocellulose filter and the membrane was processed for liquid scintillation counting. The data is expressed as the mean % Control ±SD.
# 10 μg core histones was incubated with 0.5 μg pCAF, 0.5 μCi [^3H]acetyl Co A and the indicated concentrations of 2-O-Desulfated Heparin ([…]) or 6-O-Desulfated Heparin (∘) for 30 minutes at 30° C. 35 μl aliquots of the reaction mixtures were filtered through a nitrocellulose filter in a Bio Dot Apparatus under vacuum. The wells and filter were washed with 50 mM tris pH 7.6 and the membrane was processed for liquid scintillation counting. The data is expressed as the mean % Control ±SD. […]
# [1] = tested on: histone H3 acetylation in aortic smooth muscle cells; test: Histone H3 acetylation in aortic smooth muscle cells by western blot; assay type: cell-based, neonatal rat; settings: 10 μg/ml, 24 h
# Method: Primary neonatal rat fibroblasts and smooth muscle cells were established as described (Foster, J. A. et al., (1990)) and treated with heparin or N-desulfated heparin (10 μg/ml) for 24 h. Total cell extracts (100 μg protein for fibroblasts and 200 μg protein for smooth muscle cells) were generated and subjected to SDS-PAGE followed by electrotransfer to Immobilon membrane. Membranes were incubated with anti-acetylated histone H3 (Upstate) followed by enzyme linked secondary antibody. Bands were visualized with ECL.
# Immobilon membranes were blocked for 1 hour at room temperature with blocking buffer containing 3% milk in tris buffered saline containing 0.1% tween-20 (TBST). The blots were rinsed twice with TBST prior to incubation with the primary antibody solutions. The blots were incubated with the appropriate antibody dilution for 1 hour at room temperature or overnight at 4° C. The blots were washed with TBST prior to incubation with the appropriate HRP-linked IgG for 1 hour at room temperature. The blots were washed with TBST prior to chemiluminescence exposure.
# We also treated another cell type, aortic smooth muscle cells, with heparin to determine if this response was general or specific to the pulmonary cells.
# T1 sequence (Q92831 whole entry): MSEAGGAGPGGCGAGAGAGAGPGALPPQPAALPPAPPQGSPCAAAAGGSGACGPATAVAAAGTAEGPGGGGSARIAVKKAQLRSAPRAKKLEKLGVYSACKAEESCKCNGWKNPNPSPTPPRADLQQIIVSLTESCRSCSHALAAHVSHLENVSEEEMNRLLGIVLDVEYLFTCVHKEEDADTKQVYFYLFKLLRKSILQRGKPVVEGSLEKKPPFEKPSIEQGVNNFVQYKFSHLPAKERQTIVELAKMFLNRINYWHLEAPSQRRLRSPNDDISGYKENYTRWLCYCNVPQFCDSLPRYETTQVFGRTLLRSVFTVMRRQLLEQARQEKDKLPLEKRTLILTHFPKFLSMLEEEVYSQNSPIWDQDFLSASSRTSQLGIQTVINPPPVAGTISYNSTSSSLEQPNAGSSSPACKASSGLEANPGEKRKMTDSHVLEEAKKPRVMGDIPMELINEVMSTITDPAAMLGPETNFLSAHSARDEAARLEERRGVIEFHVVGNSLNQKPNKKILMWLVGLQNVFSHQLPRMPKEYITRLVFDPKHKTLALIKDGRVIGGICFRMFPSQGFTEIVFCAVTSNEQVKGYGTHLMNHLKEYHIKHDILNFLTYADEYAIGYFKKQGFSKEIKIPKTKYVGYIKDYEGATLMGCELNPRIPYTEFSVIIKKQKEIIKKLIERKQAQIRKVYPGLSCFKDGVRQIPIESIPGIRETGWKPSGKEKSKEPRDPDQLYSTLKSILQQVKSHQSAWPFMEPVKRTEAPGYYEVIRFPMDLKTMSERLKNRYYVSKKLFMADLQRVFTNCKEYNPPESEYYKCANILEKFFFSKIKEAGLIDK
substance,measurement,setting,value
heparin [reference compound],50% inhibition (IC50),pCAF,~7 µg/mL
same,level of histone H3 acetylation,[1],significant reduction of histone H3 acetylation
